Assay results published in US20220226480A1, “LIPID CONJUGATE PREPARED FROM SCAFFOLD MOIETY” (Integrated Nanotherapeutics Inc., priority 2019, published 2022).

Legend:
[1] = Particle size and polydispersity of LNP containing pro-drug (dynamic light scattering); type: physicochemical; design: Size of LNP: unit not given here
Method: (§1) LNPs were prepared by dissolving 1,2-Distearoyl-sn-glycero-3-phosphocholine (DSPC) or 1,2-dimyristoyl-sn-glycero-3-phosphocholine (DMPC), cholesterol and 1,2-Distearoyl-sn-glycero-3-phosphoethanolamine-Poly(ethylene glycol) (PEG-DSPE) in ethanol. DSPC, DMPC and PEG-DSPE were purchased from Avanti Polar Lipids (Alabaster, Ala.), and cholesterol was obtained from Sigma (St Louis, Mo.).
(§2) Drug-lipid-conjugates INT-D034, INT-D035, INT-D045, INT-D046, INT-D047, INT-D048, INT-D049, INT-D050, INT-D051, INT-D053, INT-D060, INT-D061, INT-D062, INT-D063, INT-D083, INT-D085, INT-D086, INT-D088 and INT-D089 (see FIG. 3 and Example 7 for structures) were dissolved in isopropanol or THF. LNP were prepared by rapidly mixing DSPC or DMPC, cholesterol, drug-lipid conjugate, and PEG-DSPE (in molar ratio of 49/40/10/1) with phosphate-buffered saline (PBS) using a cross-junction mixer. Formulations were dialyzed against PBS to remove residual ethanol. In formulation$ with more than 10 mol % drug-lipid conjugates, the amount of phospholipid or cholesterol was reduced accordingly.
(§3) The physiochemical properties of the LNPs prepared as described above were subsequently characterized. Particle size was determined by dynamic light scattering using a Malvern Zetasizer Nano ZS (Malvern, UK) following buffer exchange into phosphate-buffered saline. Number-weighted size and distribution date was used. Lipid concentrations were determined by measuring total cholesterol using the Cholesterol E enzymatic assay kit from Wako Chemicals USA (Richmond, Va.). The morphology of LNP formulations containing LD-DEX was analyzed by cryogenic-transmission electron microscopy (cryoTEM).

CD4+ T cells = test: Mixed lymphocyte reaction (MLR) assay, BMDCs with allogeneic CD4+ T cells; type: cell-based, mice; details: LNP containing 10-99 mol % conjugate; BMDCs treated 48 hours, LPS 24 hours; 5:1 or 10:1 T-to-BMDC ratio; 3 days; flow cytometry
Method: Bone marrow derived dendritic cells (BMDCs) from C57Bl/6 male mice were first treated with LNP containing various mol % of the dexamethasone or calcitriol conjugates for 48 hours and then activated by incubation with LIPS for 24 hours. They were then harvested and mixed with CD4+ T cells isolated from Balb/cJ male mice (Jackson Laboratories) at 5:1 or 10:1 T-to-BMDC ratio.
Dexamethasone and calcitriol can tolerize antigen presenting cells (APCs). […] Bone marrow derived dendritic cells (BMDCs) from C57BI/6 male mice (Charles River) were first treated with LNP containing various mol % of dexamethasone or calcitriol conjugates for 48 hours and then activated by incubation with LPS for 24 hours. They were then harvested and mixed with CD4+ T cells isolated from Balb/cl male mice (Jackson Laboratories) at 5:1 or 10:1 T-to-BMDC ratio. The levels of T cells proliferation after 3 days were quantified using flow cytometry.

J774.2 = test: Pro-inflammatory cytokine expression in LPS-stimulated macrophage cell line J774.2 (qRT-PCR); type: cell-based; details: LNP formulation at doses equivalent to 1, 3 or 10 μM dexamethasone, 24 hours, 10 ng/mL LPS, versus control LNP
Method: The graph depicts the expression of the cytokines IL-1β (top), TNFα (middle) and IL-6 (bottom) after 24 hours of incubation of the cells with the above components at doses equivalent to 1, 3 or 10 μM of dexamethasone, followed by stimulation by 10 ng/mL lipopolysaccharide (LPS) overnight. Cytokine levels were measured by qRT-PCR and data was normalized to cells treated with control LNP without drug-lipid conjugates.
(§4) Cultured macrophage cell lines J774.2 (FIG. 8) and Raw264.7 (FIG. 9A) were incubated with immunostimulant LPS and LNP with or without ricinoleyl-dexamethasone conjugate INT-D034/INT-D035. After 24 hours, cells were harvested and were analyzed for expression of pro-Inflammatory cytokines IL1β, TNFα and IL-6. RNA was isolated from the cells and levels of pro-inflammatory cytokines ILIβ, TNFα and IL6 were determined by qRT-PCR.

[2] = Encapsulation efficiency / incorporation of pro-drug in LNP; type: physicochemical; details: for Encapsulation Efficiency (%): LNP containing 10 mol % conjugate, primary PC-lipid DMPC; for % Entrapment: LNP formulations containing pro-drugs (10 mol %, FIG. 6A)
Method: as §1, §2, §3

Raw264.7 = test: Pro-inflammatory cytokine expression in LPS-stimulated Raw264.7 cells (qRT-PCR); type: cell-based; details: LNP formulation at doses equivalent to 1, 3 or 10 μM dexamethasone, 24 hours, 10 ng/mL LPS, versus control LNP
Method: The graph depicts the expression of the cytokines IL-10 (top), TNFα (middle) and IL-6 (bottom) after 24 hours of incubation of the cells with the above components at doses equivalent to 1, 3 or 10 μM of dexamethasone, followed by stimulation by 10 ng/mL LPS overnight. Cytokine levels were measured by qRT-PCR and data was normalized to cells treated with control LNP without drug-lipid conjugates.
The graph depicts the expression of the cytokines IL-10 after 24 hours of incubation of the cells with the above components at doses equivalent to 1 or 10 μM of dexamethasone, followed by stimulation by 10 ng/mL LPS overnight. Cytokine levels were measured by qRT-PCR and data was normalized to cells treated with control LNP without drug-lipid conjugates.
as §4

[3] = LNP containing 10 mol % conjugate, primary PC-lipid DMPC
[4] = LNP formulations containing pro-drugs (10 mol %, FIG. 6A)
[5] = LNP, pro-drug concentration 10 %
[6] = LNP, pro-drug concentration 20 %
[7] = LNP, pro-drug concentration 30 %
[8] = LNP, pro-drug concentration 40 %
[9] = LNP, pro-drug concentration 50 %
[10] = LNP, pro-drug concentration 60 %
[11] = LNP, pro-drug concentration 80 %
[12] = LNP, pro-drug concentration 95 %
[13] = LNP, pro-drug concentration 98 %
[14] = LNP, pro-drug concentration 99 %
[15] = all LNP formulations at 0 to 99 mol % pro-drug concentration

## CCCCCC[C@H](C/C=C\CCCCCCCCOC(=O)CCC(=O)OCC(=O)[C@@]1(O)[C@H](C)C[C@H]2[C@@H]3CCC4=CC(=O)C=C[C@]4(C)[C@@]3(F)[C@@H](O)C[C@@]21C)OC(=O)CCCCC [INT-D034, 2-((8S,9R,10S,11S,13S,14S,16R,17R)-9-Fluoro-11,17-dihydroxy-10,13,16-trimethyl-3-oxo-6,7,8,9,10,11,12,13,14,15,16,17-dodecahydro-3H-cyclopenta[a]57ctadic57rene-17-yl)-2-oxoethyl ((R,Z)-12-(hexanoyloxy)57ctadic-9-en-1-yl) succinate]
[1]; [3]
  Particle Diameter (nm): 72 nm
  Polydispersity index (PDI): 0.02
[1]; [4]
  PdI: 0.08
  Size of LNP: 70
[1]; [5]
  PdI: 0.064
  Size (nm): 48 nm
[1]; [6]
  PdI: 0.068
  Size (nm): 45 nm
[1]; [7]
  PdI: 0.082
  Size (nm): 43 nm
[1]; [8]
  PdI: 0.100
  Size (nm): 41 nm
[1]; [9]
  PdI: 0.085
  Size (nm): 32 nm
[1]; [10]
  PdI: 0.022
  Size (nm): 48 nm
[1]; [11]
  PdI: 0.025
  Size (nm): 87 nm
[1]; [12]
  PdI: 0.082
  Size (nm): 29 nm
[1]; [13]
  PdI: 0.014
  Size (nm): 52 nm
[1]; [14]
  PdI: 0.011
  Size (nm): 86 nm
[1]; [15]
  Polydispersity index (PDI): ≤ 0.1
  particle diameter: 29-87 nm
CD4+ T cells
  allogeneic T-cell proliferation: able to suppress allogeneic T-cell proliferation
J774.2
  levels of pro-inflammatory cytokines (IL1β, TNFα, IL-6): reduced levels of pro-inflammatory cytokines in a dose-dependent manner
[2]
  Encapsulation Efficiency (%): 100%
  % Entrapment: 99%
[2]; [15]
  encapsulation efficiencies: high
Raw264.7
  levels of pro-inflammatory cytokines (IL1β, TNFα, IL-6): reduced levels of pro-inflammatory cytokines in a dose-dependent manner

## CCCCCCCC/C=C\CCCCCCCC(=O)O[C@@H](C/C=C\CCCCCCCCOC(=O)CCC(=O)OCC(=O)[C@@]1(O)[C@H](C)C[C@H]2[C@@H]3CCC4=CC(=O)C=C[C@]4(C)[C@@]3(F)[C@@H](O)C[C@@]21C)CCCCCC [INT-D035, 2-((8S,9R,10S,11S,13S,14S,16R,17R)-9-fluoro-11,17-dihydroxy-10,13,16-trimethyl-3-oxo-6,7,8,9,10,11,12,13,14,15,16,17-dodecahydro-3H-cyclopenta[a]phenanthren-17-yl)-2-oxoethyl ((R,Z)-12-(oleoyloxy)octadec-9-en-1-yl) succinate]
[1]; [3]
  Particle Diameter (nm): 67 nm
  Polydispersity index (PDI): 0.03
[1]; [4]
  PdI: 0.11
  Size of LNP: 64
J774.2
  levels of pro-inflammatory cytokines (IL1β, TNFα, IL-6): reduced levels of pro-inflammatory cytokines in a dose-dependent manner
[2]
  Encapsulation Efficiency (%): 100%
  % Entrapment: 99%
Raw264.7
  levels of pro-inflammatory cytokines (IL1β, TNFα, IL-6): reduced levels of pro-inflammatory cytokines in a dose-dependent manner
